Results: ChEMBL document CHEMBL4354798, “Synthetic Approaches to the New Drugs Approved During 2017” (J Med Chem, 2019)

How the values were obtained:
[1] = Half life in human Plasma; assay type: ADME, cell-free
[2] = Half life in human infected with HIV 20 to 40 mg, po for 7 days; assay type: ADME, organism-based; details: in vivo
[3] = Antitumour activity in human FLT3 positive AML patient assessed as increase in survival time at 50 mg, po bid for 14 days co-treated with CTX relative to control; assay type: functional

half-life [2] [h] | Compound | other results
– | Cc1cccc(C)c1N(CC(=O)Nc1ccc(-c2ncon2)cc1)C(=O)C1CCS(=O)(=O)CC1 [AMENAMEVIR] | half-life [1]: 8 h
> 120 | N#Cc1cc(Cl)cc(Oc2c(Br)ccc(CC(=O)Nc3ccc(S(N)(=O)=O)cc3Cl)c2F)c1 [DEPULFAVIRINE] | –
2 | CCC(=O)[N-]S(=O)(=O)c1ccc(NC(=O)Cc2ccc(Br)c(Oc3cc(Cl)cc(C#N)c3)c2F)c(Cl)c1.[Na+] [ELSULFAVIRINE SODIUM] | –
– | CO[C@@H]1[C@H](N(C)C(=O)c2ccccc2)C[C@H]2O[C@]1(C)n1c3ccccc3c3c4c(c5c6ccccc6n2c5c31)C(=O)NC4 [MIDOSTAURIN] | Activity [3]: 80%
